In general, melting point refers to the temperature of the solid-liquid transition.

`CC(=O)Oc1ccc2c(c1)Cc1cc(C(C)=O)ccc1-2` came in with a melting point of 126 to 128 °C.

Molecule `COc1ccc(-n2c(-c3cc(-c4ccccc4)c(N4CCOCC4)s3)nc3ccccc3c2=O)cc1` registered a melting point of 164 to 165 °C.

For `COc1ccc(C(CC(=O)O)c2ccc(OC)cc2)cc1`, the melting point lay in the range of 132 to 134 °C.

As to `Cc1cc2c(cc1Sc1ccc(C(=O)O)c(Cl)c1)C(C)(C)CCC2(C)C`, the melting point lay in the range of 202 to 205 °C.

The molecule `CCOC(=O)c1sc(SC)c2c1CCC(C(OCC)OCC)C2=O` (stereo not given) had a melting point of 113 to 114 °C.

`Cc1ccccc1N1CC(=O)N(C)C(=O)N1` had a melting point of 147 to 148 °C.

In the case of `Cc1cc(Cl)cnc1N`, the melting point was 63 to 64 °C.

For `CC1(C)CC2(CC(C)(C)N1O)OC1(CCCCCCCCCCC1)NC2=O`, the melting point lay in the range of 236 to 238 °C.

In turn, `C=C(C)Cn1c(=O)n(C)c(=O)c2c[nH]nc21` displayed a melting point of 232 to 233 °C.

Regarding `CCC(=NOC)c1cc(I)c(O)c(CN)c1`, the melting point is 156 to 157 °C.

Molecule `Cc1cccc(-c2nc(C(C)C)[nH]c2-c2cccc(-c3cnn(C)c3)c2)n1` displayed a melting point of 84 to 86 °C.

`CS(=O)(=O)Nc1cccc(C=C2c3ccc(Cl)cc3CCc3cc(Cl)ccc32)c1` displayed a melting point of 182 °C.

Consider `CC(C)Cn1c(=O)n(C)c(=O)c2c(CCCCC(=O)O)n(Cc3cccc4ccccc34)cc21`, for which the melting point was in the range of 146 to 147 °C.

For `CCSc1cc(C)nc(SCC)c1NC(=O)CCCCCCCSc1nc2ccccc2o1`, the melting point lay in the range of 82 to 84 °C.

Turning to `O=C(O)CCCc1oc(Cl)nc1-c1ccc(Cl)cc1`, the melting point was in the range of 150 to 151 °C.

Molecule `COc1cc(C)nc(NC(=O)NS(=O)(=O)c2ccccc2C(=O)Nc2nccs2)n1` returned a melting point of 185 to 187 °C.

Consider `CC(=O)OCC(=O)C1(OC(C)=O)C(C)CC2C3CCC4=CC(=O)C=CC4(C)C3(F)C=CC21C` (stereo not given), for which the melting point was in the range of 135 to 136 °C.

`CCCCCCCCCCCCCCOc1ccc(NC(=O)Nc2cccc(CBr)c2)cc1` gave a melting point of 164 to 169 °C.

`COc1ccc(C2C(C(=O)/C=C/c3ccc(OC)c(OC)c3)C(=O)CC(c3ccc(OC)c(OC)c3)C2[N+](=O)[O-])cc1` (stereo not given): the melting point lay in the range of 158 to 160 °C.

The molecule `N=Cc1ccccc1[N+](=O)[O-]` came in with a melting point of 117 to 119 °C.

With `CCOC(=O)CCCn1c(Nc2c(C)nn(C)c2C)nc2c(Cl)ccc(C(CC)CC)c21`, the melting point fell in the range of 177 to 178 °C.

The molecule `CN1C(=O)CCC(C)(C)c2cc(Nc3ncc(Cl)c(N[C@@H]4CCCC[C@H]4NS(C)(=O)=O)n3)ccc21` showed a melting point of 165 °C.

As for `Cc1cccc(-c2ccc(O)cc2C=O)c1`, the melting point is 148 to 150 °C.

On to `COc1ccc(O)c(C2(CO)C(=O)N(CO)c3cccc(Br)c32)n1` (stereo not given), for which the melting point lay within 142 to 145 °C.

Turning to `Cn1c2ccccc2c(=O)c2cccn21`, the melting point lay in the range of 154 to 156 °C.

On to `CCOC(Cc1ccc(OCC=C2c3ccccc3CCc3ccccc32)cc1)C(=O)O` (stereo not given), for which the melting point fell in the range of 147 to 150 °C.

As for `CCOC(=O)Cc1ccc(NC(=O)C(COc2ccc(Cl)cc2)NS(=O)(=O)c2ccc(F)cc2)cc1` (racemic), the melting point fell in the range of 132 to 134 °C.

In turn, `Cc1cc(C#N)cc(C(N)=O)c1NC(=O)c1cc(Br)nn1-c1ncccc1Cl` displayed a melting point of more than 255 °C.

`Cc1nnc2nc(-c3cccc(C(F)(F)F)c3)cnn12` registered a melting point of 230 to 233 °C.

As to `CCOC(=O)N1CCC(n2nc(Cc3ccc(F)cc3)c3ccccc3c2=O)CC1`, the melting point is 151 to 152 °C.

In turn, `c1ccc(NC2CCc3ccccc3C2)cc1` (stereo not given) returned a melting point of 193 to 196 °C.

Take `CCOC(=O)c1cnn(Cc2ccccc2)c1-c1ccccc1`: the melting point fell in the range of 78 to 79 °C.

`CCCc1cn(-c2cc(=O)n(-c3ccccc3)nc2C#N)nn1`: the melting point lay in the range of 192 to 195 °C.

For the molecule `COCCOC(=O)C1=C(O)c2ccccc2S(=O)(=O)N1C`, the melting point is 106 to 108 °C.

Consider `CCOP(=O)(CCCOc1ccc(C(=O)O)cc1)OCC`, for which the melting point is 107 to 110 °C.

With `Cn1nc(-c2c(NCc3ccccn3)nc(N)nc2-c2ccccc2)ccc1=O`, the melting point was 248 to 250 °C.

The molecule `O=[N+]([O-])c1ccc(F)c(-c2cccs2)c1` came in with a melting point of 65 °C.

As to `COc1cc2ccc(-c3ccc(C(=O)O)cc3)cc2cc1C12CC3CC(CC(C3)C1)C2`, the melting point turned out to be 360 °C.

Turning to `COc1cccc(C2SCCCS2)c1OC`, the melting point fell in the range of 119 to 120 °C.

`O=C(OCCCc1ccc(OCc2ccc(Cl)cc2)cc1)c1cccnc1`: the melting point was in the range of 109 to 110 °C.

`CS(=O)(=O)c1nc(C(N)=O)n[nH]1` showed a melting point of 172 to 180 °C.

The molecule `CCOC(=O)c1ccc(C#CC(=O)Nc2ccccc2)cc1` came in with a melting point of 114 to 115 °C.

Molecule `C[C@H](NC(=O)CC(Br)C(=O)c1ccc(Br)cc1)C(=O)O` (stereo not given in full) showed a melting point of 110 to 113 °C.

With `CCC(=O)CCc1ccc(OC)c(S(N)(=O)=O)c1`, the melting point was in the range of 135 to 138 °C.

As to `COc1ccc(CCNC(=S)N2CCN(c3ncnc4cc(OC)c(OC)cc34)CC2)cc1OC`, the melting point fell in the range of 98 to 100 °C.

The molecule `C=C(CN(C)C)C(O)c1ncc2c(c1O)COC2c1ccc(Cl)cc1` (stereo not given) returned a melting point of 195 to 200 °C.

On to `COC(=O)Cc1ccc2cc(OC)ncc2c1`, for which the melting point lay in the range of 49.5 to 51 °C.

The molecule `CSc1c(N)cnc2ccccc12` came in with a melting point of 96 to 98 °C.

Turning to `O=C(Nc1cccc(C(F)(F)F)c1)N1COc2cc(O)ccc21`, the melting point fell in the range of 173 to 174 °C.

In turn, `CC(=O)N[C@H]1CCC(=O)N2CCC[C@@H](C(=O)O)N2C1=O` gave a melting point of more than 250 °C.

For the molecule `COc1ccc(N2CCN(c3c(C)c(C)c4c(c3C)C(c3ccc(OC(F)(F)F)cc3)C(C)(C)O4)CC2)cc1` (stereo not given), the melting point was 147 to 148 °C.

Molecule `CCCCC1(CCCC)CS(=O)(=O)c2ccc(N(C)C)cc2[C@@H](c2ccc(OCCCCC(=O)O)cc2)[C@H]1O` showed a melting point of 76 to 79 °C.

Consider `N#Cc1cn(CO)cc1-c1ccccc1Cl`, for which the melting point lay in the range of 94 to 97 °C.

`CC(=O)c1ccc(OCCOc2ccc3ccccc3c2)c(F)c1` had a melting point of 171 to 173 °C.

On to `O=C(NC1CCN(C(=O)NCCC2(C(=O)NCC(F)(F)F)c3ccccc3-c3ccccc32)CC1)c1ccccc1`, for which the melting point lay in the range of 220 to 222 °C.

Consider `Cc1c(-c2ccc(Cl)cc2)n(Cc2ccc(OCCN3CCCCC3)cc2)c2ccc(O)cc12`, for which the melting point fell in the range of 161 to 164 °C.

With `CCOC(=O)c1cn(Cc2ccccc2)nc1OCc1ccc(OCc2nc(-c3ccco3)oc2C)c(OCOC)c1`, the melting point lay within 120 to 121 °C.

On to `CCN(CC)C(=O)CCc1nc(-c2ccc([N+](=O)[O-])cc2)nc2ccccc12`, for which the melting point turned out to be 168 °C.

`COc1cc(C)c(C(=O)c2c(Cl)cccc2Cl)c(OC(=O)Cc2ccccc2)c1OC` came in with a melting point of 106 °C.

For the molecule `CC(=O)c1ccc(OCCCOc2cc([N+](=O)[O-])c(C)cc2Br)c(CCC(F)(F)F)c1O`, the melting point fell in the range of 106 to 109 °C.

Turning to `CC(=O)OC(C)C=C(C)c1ccc(-c2ccccc2)cc1` (stereo not given), the melting point was 62 to 64 °C.

The molecule `CC(C)(C)c1ccc(S(=O)(=O)N2c3ccccc3C[C@H]2C(=O)NCc2ccc(Cl)cc2)cc1` came in with a melting point of 69 °C.

Molecule `COc1nc(C)nc(NC(=O)NS(=O)(=O)c2ccccc2-n2nnnc2C)n1` came in with a melting point of 207 to 209 °C.

The molecule `O=S1(=O)N=CN(C2CC2)c2ccccc21` registered a melting point of 191 to 194 °C.

As for `COc1cccc(Nc2ncc3cc4ccccc4n3n2)c1`, the melting point lay within 191 to 193 °C.

Molecule `CC(C)(C)OC(=O)CNC1Cc2ccccc2C1` returned a melting point of 54 to 55 °C.

Turning to `CC(C)[C@H](NC(=O)OCc1ccccc1)C(=O)N[C@@H](Cc1ccccc1)C(=O)CSCc1ccco1`, the melting point was 122 to 125 °C.

The molecule `CC(=O)c1ccc(C#Cc2ccc(C(C)=O)s2)s1` yielded a melting point of 214 °C.

On to `O=[N+]([O-])c1nccn1CCCl`, for which the melting point lay in the range of 85 to 87 °C.

With `NC(=O)c1ncn2c1nc(N1CCOCC1)c1ccccc12`, the melting point was more than 300 °C.

Molecule `O=C(C[C@@H](CCCC1CCCCC1)c1nc(CNC2CCCCC2)no1)NO` showed a melting point of 127 °C.

Consider `CC(=O)N1CCC(O)(c2ccccc2C)CC1`, for which the melting point was in the range of 145 to 146 °C.

`COc1ccc2ccc(S(=O)(=O)Cl)cc2c1` returned a melting point of 81 to 85 °C.

In turn, `CN(C)CC1CC(c2ccc(Cl)cc2)c2ccccc2O1` (stereo not given) displayed a melting point of 120 to 122 °C.

`COc1cccc(C(=O)N(C)C)c1-c1ccccc1`: the melting point was 83 to 84 °C.

In the case of `CNC(=O)ON=C1SCC(=O)N(C)C1C` (stereo not given), the melting point lay within 161 to 163 °C.

`NS(=O)(=O)c1ccc(-c2cnn(-c3ccc(F)cc3)c(=O)c2-c2ccc(F)cc2)cc1F` yielded a melting point of 222 to 224 °C.

Molecule `CCOC(=O)C1Cc2c(OC)ccc(OC)c2CO1` (stereo not given) yielded a melting point of 59.8 °C.

`COc1ccc(C(=O)NCCCN2CCN(C(c3ccccc3)c3ccccc3)CC2)cc1` yielded a melting point of 126 to 128 °C.

With `COc1cc(Nc2nccc(Nc3ccc(OCC(=O)O)cc3)n2)cc(OC)c1OC`, the melting point is 159 °C.

`CCOC(=O)c1ncn2c1[C@@H]1CCCN1C(=O)c1ccccc1-2` showed a melting point of 196 to 197 °C.

`CCCCCCCCCCOc1ccc(C(=O)O)cc1C12CC3CC(CC(C3)C1)C2` registered a melting point of 151 to 152 °C.

`CCCCCCCCCC=COC1OC(CO)C(O)C(O)C1NC(C)=O` (stereo not given) registered a melting point of 152 to 154 °C.

In the case of `CC(C)(C)NCC(Cc1ccc(OCc2ccccc2)cc1)NCc1ccc(C(C)(C)C)cc1` (stereo not given), the melting point lay within 63 to 65 °C.

In turn, `O=C(O)Cc1ccc(C(=O)C2CCCCC2)cc1` came in with a melting point of 94 to 95.5 °C.

In turn, `CCCCc1cc(C(=O)OC)c(N)s1` registered a melting point of 62 to 63 °C.

With `NS(=O)(=O)c1ccc(-c2oc3ccc(F)cc3c(=S)c2-c2ccc(F)cc2)cc1`, the melting point fell in the range of 224 to 225 °C.

Turning to `CCCN(CC1CC1)c1nc(C)nc2c1CCCC2(C)c1ccc(Cl)cc1` (stereo not given), the melting point lay within 171 to 172 °C.

With `COc1ccc(C=C(c2ccc(OC)cc2)N(C)C)cc1`, the melting point lay within 67 to 69 °C.

`COc1cc2oc(=O)c3c(c2cc1NC(C)=O)CCN(CC(C)=O)C3` returned a melting point of 210 to 215 °C.

The values above are taken from a melting point compilation (Tetko et al.; mined from patent text by program, amines drawn as free bases though some values may be those of a salt).
